Reference: paper PMC5271370, “A High-Content Assay Enables the Automated Screening and Identification of Small Molecules with Specific ALDH1A1-Inhibitory Activity” (PLoS ONE, 2017)
Like-named read-outs stand apart in the source and are kept apart here.

Columns and labels:
Assay type in all cases: biochemical
[1] = target: T1, Human ALDH1A1 (Homo sapiens, UniProt P00352); experiment: 1,536-well enzymatic assay (NADH fluorescence), ALDH1A1
T1 construct: made in house
T1 sequence (P00352 1-501): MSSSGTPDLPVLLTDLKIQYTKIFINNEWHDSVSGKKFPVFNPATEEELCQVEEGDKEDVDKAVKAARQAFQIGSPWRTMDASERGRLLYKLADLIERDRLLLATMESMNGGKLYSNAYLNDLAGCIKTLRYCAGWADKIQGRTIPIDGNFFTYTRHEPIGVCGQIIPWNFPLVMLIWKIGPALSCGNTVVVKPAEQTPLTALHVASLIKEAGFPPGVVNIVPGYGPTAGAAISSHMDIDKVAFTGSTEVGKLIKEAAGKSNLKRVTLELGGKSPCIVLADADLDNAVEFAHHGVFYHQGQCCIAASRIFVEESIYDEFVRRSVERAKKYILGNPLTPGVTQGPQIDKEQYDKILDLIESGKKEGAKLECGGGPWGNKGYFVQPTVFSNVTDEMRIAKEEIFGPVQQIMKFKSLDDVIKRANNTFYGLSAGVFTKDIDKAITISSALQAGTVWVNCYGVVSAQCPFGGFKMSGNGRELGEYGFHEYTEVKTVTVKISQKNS
Source text: (§1) To validate our optimized assay, we assembled a set of 20 previously reported ALDH inhibitors, with varying degrees of target specificity (Table 1 and S4 Fig). […] Briefly, the assay measures the dehydrogenase activity of recombinant human ALDH1A1, ALDH1A2, ALDH1A3, ALDH2 or ALDH3A1 using NAD(P)^+ and either propionaldehyde or benzaldehyde as substrates. An orthogonal resorufin-based assay format was also run with isolated ALDH1A1 to rule out potential false positives due to intrinsic compound fluorescence.
(§2) Human ALDH1A1 and ALDH3A1 were expressed and purified as described elsewhere. Human ALDH2 was purchased from Abcam (ab87415). Human ALDH1A2 and ALDH1A3 were purchased from MyBioSource (MBS1005929; San Diego, CA) and ThermoFisher (11636H07E50), respectively. The inhibitory activity of compounds against ALDHs was measured according to protocols described previously. Briefly, 3 μL of enzyme (final concentrations of 20 nM for ALDH1A1, 50 nM for ALDH1A2, 50 nM for ALDH1A3, 75 nM for ALDH2 and 5 nM for ALDH3A1) in assay buffer (100 mM HEPES pH 7.5 with 0.01% Tween 20) were dispensed into a 1,536-well solid-bottom black plate (Greiner Bio One, Monroe, NC). […] Samples were incubated (room temperature, protected from light) for 15 minutes followed by a 1 μL substrate addition of NAD^+ and Propionaldehyde (final concentrations of 1 mM and 80 μM, respectively) for ALDH1A1, 1A2, 1A3, and ALDH2 or NADP^+ and benzaldehyde (final concentrations of 1 mM and 200 μM, respectively) for ALDH3A1. Plates were centrifuged at 1,000 rpm for 15 seconds, then read in kinetic mode on a ViewLux High-throughput CCD imager (PerkinElmer, Waltham, MA) equipped with standard UV fluorescence optics (340 nm excitation, 450 nm emission) for 5 (ALDH1A1, ALDH1A2, ALDH2, ALDH3A1) or 30 (ALDH1A3) minutes. The change in fluorescence intensity over the 5- or 30-minute reaction period was normalized against no-inhibitor and no-enzyme controls and the resulting percent inhibition data were fitted to a 4-parameter Hill equation. Bay-11 7085 was used as intraplate control. To account for artifacts due to intrinsic compound fluorescence in the above spectrum, compounds were also tested in an orthogonal resorufin assay format with optics of excitation 525 nm/emission 598 nm as described before. The same parameters as the NADH assay were used for the resorufin assay, with the addition of (final) 133 μg/mL diaphorase and 37 μM resazurin to the assay solution. Same controls were used in both formats.

[2] = target: T2, Human ALDH1A3 (Homo sapiens, UniProt P47895); experiment: 1,536-well enzymatic assay (NADH fluorescence), ALDH1A3
T2 construct: purchased ThermoFisher 11636H07E50
T2 sequence (P47895 1-512): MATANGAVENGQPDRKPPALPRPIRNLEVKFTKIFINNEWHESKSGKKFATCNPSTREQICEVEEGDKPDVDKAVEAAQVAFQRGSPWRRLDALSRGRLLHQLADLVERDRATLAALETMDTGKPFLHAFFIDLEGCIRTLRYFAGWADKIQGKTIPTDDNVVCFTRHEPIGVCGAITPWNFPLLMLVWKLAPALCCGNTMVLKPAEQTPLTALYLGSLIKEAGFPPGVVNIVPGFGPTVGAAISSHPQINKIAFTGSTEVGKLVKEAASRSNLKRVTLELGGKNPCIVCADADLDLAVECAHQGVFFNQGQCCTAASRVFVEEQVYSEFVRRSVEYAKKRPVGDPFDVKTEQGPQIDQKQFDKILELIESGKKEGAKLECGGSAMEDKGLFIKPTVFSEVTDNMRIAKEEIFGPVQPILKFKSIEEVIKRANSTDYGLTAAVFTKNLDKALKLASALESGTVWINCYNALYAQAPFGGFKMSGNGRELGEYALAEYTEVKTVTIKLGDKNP
Source text: as §1, §2

[3] = target: T3, Human ALDH2 (Homo sapiens, UniProt P05091); experiment: 1,536-well enzymatic assay (NADH fluorescence), ALDH2
T3 construct: purchased Abcam ab87415
T3 sequence (P05091 18-517): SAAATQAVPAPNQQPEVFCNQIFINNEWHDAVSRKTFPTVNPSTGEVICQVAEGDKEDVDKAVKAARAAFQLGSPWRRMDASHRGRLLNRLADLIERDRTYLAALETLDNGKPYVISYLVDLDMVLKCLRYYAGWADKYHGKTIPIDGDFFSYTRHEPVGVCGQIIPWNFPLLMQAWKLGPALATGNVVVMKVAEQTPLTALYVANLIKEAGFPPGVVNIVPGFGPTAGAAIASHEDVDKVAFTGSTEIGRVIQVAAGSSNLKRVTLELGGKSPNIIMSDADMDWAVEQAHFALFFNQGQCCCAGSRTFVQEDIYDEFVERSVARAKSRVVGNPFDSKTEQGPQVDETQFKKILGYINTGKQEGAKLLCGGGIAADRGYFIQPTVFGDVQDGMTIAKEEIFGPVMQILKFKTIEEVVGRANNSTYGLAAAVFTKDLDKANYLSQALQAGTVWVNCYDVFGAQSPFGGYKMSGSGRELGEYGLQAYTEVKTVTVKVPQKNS
Source text: as §1, §2

[4] = validation set, 20 nM enzyme, NAD+ and propionaldehyde, read-out: Biochemical IC50 ALDH1A1
[5] = validation set, 50 nM enzyme, NAD+ and propionaldehyde, read-out: Biochemical IC50 ALDH1A3
[6] = validation set, 75 nM enzyme, NAD+ and propionaldehyde, read-out: Biochemical IC50 ALDH2
[7] = hits of dual cell-based screen (Table 2), read-out: Biochemical IC50 ALDH1A1
[8] = hits of dual cell-based screen (Table 2), read-out: Biochemical IC50 ALDH1A3

Molecule | IC50 [1, 4] | IC50 [2, 5] | IC50 [3, 6] | further results
CC(C)=CCCC(C)=CC=O (mixture of isomers) [Citral] | 10.8 µM | 2.7 µM | 4.28 µM | 
COc1ccc(C(=O)CCN(C)C)cc1F [Aldi-2] | 0.15 µM | 0.24 µM | 0.1 µM | 
CC(C)(C)c1ccc(S(=O)(=O)/C=C/C#N)cc1 [Bay-11-7085] | 0.09 µM | 0.68 µM | 0.05 µM | 
Cc1nc2ccccc2n1S(=O)(=O)c1ccc(F)cc1 [CB7] |  | 12.1 µM | 19.1 µM | 
CCN(CC)c1ccc(C=O)cc1 [DEAB, 4-N,N-diethylaminobenzaldehyde] |  | 24.1 µM |  | 
O=c1c(-c2ccc(O)cc2)coc2cc(O[C@@H]3O[C@H](CO)[C@@H](O)[C@H](O)[C@H]3O)ccc12 [Daidzin] |  |  |  | IC50 [2]: 24.1 µM
CCN(CC)C(=S)SSC(=S)N(CC)CC [Disulfiram] |  | 0.68 µM |  | 
Cc1cc2c(C(C)C)c(O)c(O)c(C=O)c2c(O)c1-c1c(C)cc2c(C(C)C)c(O)c(O)c(C=O)c2c1O [Gossypol] |  |  |  | IC50 ([1]; Biochemical IC50 ALDH1A1, validation set, 20 nM enzyme, NAD+ and propionaldehyde): 25.6 µM; IC50 [2]: 8.55 µM; IC50 [3]: 24.1 µM
C[S+](=O)([O-])c1ccc(Cn2c3c(c4cc(F)cc(F)c42)CCCC3CC(=O)O)cc1 [L-670596] |  |  |  | IC50 [1, 7]: 0.25 µM; IC50 [2, 8]: 35.5 µM
CC(C)N(C(=O)CCl)c1ccccc1 [Propachlor] |  |  |  | IC50 [1, 7]: 0.01 µM; IC50 [2, 8]: 5.62 µM; IC50 ([3]; hits of dual cell-based screen (Table 2), read-out: Biochemical IC50 ALDH2): 12.6 µM
CVT-10216 | 19.1 µM | 27 µM | 1.21 µM | 

Now from value to molecule, other results behind:

IC50 [1, 4] | IC50 [2, 5] | IC50 [3, 6] | Molecule | further results
0.77 µM | 3.82 µM | 2.15 µM | CCOc1ccc(NCC(=O)Nc2ccc(Cl)cc2C)cc1 [CID 725345] | 
0.29 µM | 24.1 µM | 9.59 µM | COc1cccc2cc(C(=O)CC3(O)C(=O)N(Cc4ccccc4)c4ccccc43)c(=O)oc12 (stereo not shown) [CID 2929292] | 
40.5 µM | 27 µM |  | Nc1ccccc1C(=O)CC(N)C(=O)O (stereo not shown) [Kynurenine] | 
 | 17 µM |  | C#CCN(C)Cc1ccccc1 [Pargyline] | 
0.01 µM | 7.62 µM | 21.5 µM | O=C1Nc2ccccc2C1=O [indoline-2,3-dione] | 
